Literature values in patent US5229134A, “Pharmaceutical compositions” (Laboratories Smith Kline & French, priority 1989, dated 1993).

Details: plasma levels

CN/C(=N/CCSCc1nc[nH]c1C)NC#N [cimetidine]
therapeutically effective concentration in plasma: 0.5 mg/L
